# Assay results reported in patent US11202818B2, “Methods and compositions for modulating erythropoiesis” (President and Fellows of Harvard College, priority 2016, dated 2021).
# System: Kit+CD55+Lin-CD71lo BM cells
# Assay: ETD activation in cultured pre-ETD BM cells with S phase arrest
# Assay type: cell-based, mouse
# Experimental: To test whether the synchronization of ETD activation with S phase reflects mechanistic dependence, BM cells were isolated prior to the onset of ETD (Kit+CD55+Lin−CD71lo, FIG. 5, Panels f-h). The cells were cultured in the presence of Epo, which allowed them to activate the ETD, reflected first by the upregulation of CD71, followed by the upregulation of the erythroid cell surface marker Ter119, and induction of the beta-globin gene (Hbb-b1). […] The ensuing ETD activation proceeded with a 10-hour delay in the induction of CD71 and Hbb-b1 (FIG. 5, Panels g and h).
# [1] = added for the first 10 hours of culture with Epo
smiles,measurement,setting,value
C[C@@]1(CO)[C@H](O)CC[C@@]2(C)[C@H]1CC[C@H]1C[C@@H]3C[C@@]12CC[C@]3(O)CO [aphidicolin],effect on S phase,[1],arrested S phase
same,effect on upregulation of CD71,[1],paused upregulation of CD71
same,delay in the induction of CD71 and Hbb-b1,"after removal, added for the first 10 hours",10 h
